From ChEMBL document CHEMBL1136829, “Adenosine kinase inhibitors: polar 7-substitutent of pyridopyrimidine derivatives improving their locomotor selectivity” (Bioorg Med Chem Lett, 2003)

What was measured:
Adenosine kinase [1] = molecular target: T1, Adenosine kinase (Homo sapiens, UniProt P55263); test: Inhibitory concentration against adenosine kinase was determined
Adenosine kinase [2] = molecular target: T1, Adenosine kinase; test: Inhibitory concentration against adenosine kinase was determined in cell assay
Rattus norvegicus = species on record: Rattus norvegicus; test: Effective dose to reduce pain in carregenin induced thermal hyperalgesia assay in rat was determined; format: functional
[3] = Effective dose to reduce locomotor side effects in animals was determined; format: functional
[4] = Percent inhibition of the locomotor side effects in animals at 30 umol/kg po was determined; format: functional
[5] = Percent inhibition of the locomotor side effects in animals at 100 umol/kg po was determined; format: functional

T1 sequence (P55263 whole entry): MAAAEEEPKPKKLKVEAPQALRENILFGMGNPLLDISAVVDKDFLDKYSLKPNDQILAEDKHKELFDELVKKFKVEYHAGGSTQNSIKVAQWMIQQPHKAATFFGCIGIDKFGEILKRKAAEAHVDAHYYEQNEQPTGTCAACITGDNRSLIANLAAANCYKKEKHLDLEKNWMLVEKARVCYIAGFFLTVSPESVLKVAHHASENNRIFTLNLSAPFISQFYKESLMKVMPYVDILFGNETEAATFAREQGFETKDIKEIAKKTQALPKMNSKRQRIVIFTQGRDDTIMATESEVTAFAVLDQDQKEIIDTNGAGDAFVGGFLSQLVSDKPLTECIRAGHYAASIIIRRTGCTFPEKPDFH

SMILES | IC50 (Adenosine kinase [1]) [nM] | IC50 (Adenosine kinase [2]) [nM] | ED50 (Rattus norvegicus) [µmol/kg] | ED50 [3] [µmol/kg] | inhibition in vivo at 30 µmol/kg [4] [%] | inhibition in vivo at 100 µmol/kg [5] [%]
Nc1ncnc2nc(-c3ccc(N4CCC5(CC4)COCO5)nc3)cc(-c3cccc(Br)c3)c12 | 8.3 | 378 | 2 | 6 |  | 
Nc1ncnc2nc(-c3ccc(N4CCC(O)(C5CCOC5=O)CC4)nc3)cc(-c3cccc(Br)c3)c12 (stereo unspecified) | 8.1 | 50.2 | 4 |  | 97 | 87
Nc1ncnc2nc(-c3ccc(N4CC5CC4CO5)nc3)cc(-c3cccc(Br)c3)c12 (stereo unspecified) | 7.5 | 19.5 | 2 | 8 |  | 
Nc1ncnc2nc(-c3ccc(N4C[C@@H](O)[C@@H](O)C4)nc3)cc(-c3cccc(Br)c3)c12 | 6.5 | 130 | 2 |  | 73 | 
N#C[C@H]1CN(c2ccc(-c3cc(-c4cccc(Br)c4)c4c(N)ncnc4n3)cn2)C[C@H]1O | 7.5 | 496 | 4 |  | 91 | 
C/C(=N/OC1CCOCC1)C1(O)CCN(c2ccc(-c3cc(-c4cccc(Br)c4)c4c(N)ncnc4n3)cn2)CC1 | 31.7 | 43.7 | 5 | 30 |  | 
Nc1ncnc2nc(-c3ccc(N4CCC(=NOC5CCOCC5)CC4)nc3)cc(-c3cccc(Br)c3)c12 | 10 |  | 2 | 10 |  | 

Further lines, with some results ahead:

IC50 (Adenosine kinase [1]) [nM] | IC50 (Adenosine kinase [2]) [nM] | SMILES | ED50 (Rattus norvegicus) [µmol/kg] | ED50 [3] [µmol/kg] | inhibition in vivo at 30 µmol/kg [4] [%] | inhibition in vivo at 100 µmol/kg [5] [%]
2.8 | 17.3 | Nc1ncnc2nc(-c3ccc(N4CCC(COC5CCOCC5)CC4)nn3)cc(-c3cccc(Br)c3)c12 | 5 | 5 |  | 
18.8 | 74.4 | CON=C1CCN(c2ccc(-c3cc(-c4cccc(Br)c4)c4c(N)ncnc4n3)nn2)CC1 | 13 | 6 |  | 
7.2 | 40.7 | CCO[C@H]1CN(c2ccc(-c3cc(-c4cccc(Br)c4)c4c(N)ncnc4n3)nn2)C[C@H]1OCC | 3 | 25 |  | 
15.1 | 81.9 | COCCOC1CCN(c2ccc(-c3cc(-c4cccc(Br)c4)c4c(N)ncnc4n3)nn2)CC1 | 3 | 10 |  | 
7.1 | 52 | Nc1ncnc2nc(-c3ccc(N4CCC(=NOC5CCOCC5)CC4)nn3)cc(-c3cccc(Br)c3)c12 | 2 | 7 |  | 
10.4 | 51.7 | CCOC1CCN(c2ccc(-c3cc(-c4cccc(Br)c4)c4c(N)ncnc4n3)nn2)CC1 | 7 | 20 |  | 
22.8 | 89.5 | Nc1ncnc2nc(-c3ccc(N4CCC(CCOC5CCOCC5)CC4)nn3)cc(-c3cccc(Br)c3)c12 | 30 | 9 |  | 
16.2 | 154 | Nc1ncnc2nc(-c3ccc(N4CCC[C@H]4CO)nn3)cc(-c3cccc(Br)c3)c12 | 10 |  | 98 | 75
